According to patent publication US20240190860A1, “8-CYCLO-SUBSTITUTED QUINAZOLINE DERIVATIVES AS LPA RECEPTOR 2 INHIBITORS” (CHIESI FARMACEUTICI S.p.A., priority 2021, published 2024):
Like-named read-outs stand apart in the source and are kept apart here.

Molecular target: T1, human recombinant LPA2 expressed in CHO cells (Homo sapiens, UniProt Q9HBW0)
T1 construct: expressed in transfected cells; host or cells: CHO cells (CHO-hLPA2 cell line)
Assay: FLIPR calcium mobilization assay, LPA2 antagonism in CHO-hLPA2 cells
Format: cell-based
Outline: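 CHO cells stably expressing human LPA2, loaded 30 min at 37° C with 5 μM Cal-520 AM plus 2.5 mM probenecid in HEPES buffer pH 7.4, then preincubated 30 min with antagonist (11-point series, 0.5% DMSO final). Challenged with LPA at EC80; baseline-subtracted peak FLIPR fluorescence converted to % inhibition and pIC50 by four-parameter logistic fit.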

[1] = CHO-hLPA2 cells, inhibition of LPA EC80 Ca2+ response, 30 min pre-incubation, read-out: LPA2 IC50

T1 sequence (Q9HBW0 whole entry): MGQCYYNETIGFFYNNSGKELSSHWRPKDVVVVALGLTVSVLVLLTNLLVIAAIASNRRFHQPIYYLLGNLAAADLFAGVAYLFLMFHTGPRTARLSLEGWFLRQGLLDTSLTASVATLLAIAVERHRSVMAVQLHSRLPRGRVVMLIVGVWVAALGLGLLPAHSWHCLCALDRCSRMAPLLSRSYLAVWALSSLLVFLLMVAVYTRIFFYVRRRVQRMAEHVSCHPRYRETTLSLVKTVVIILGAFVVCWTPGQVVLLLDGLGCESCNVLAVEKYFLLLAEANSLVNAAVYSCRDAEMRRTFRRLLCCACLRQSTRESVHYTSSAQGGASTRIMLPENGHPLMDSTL

Row | IC50 [1] | IC50 (comparative compound, same in vitro assay, stated inactive on receptor LPA2, read-out: IC50 on LPA2 receptor) | Structure (SMILES)
1 | < 10 nM | – | Cc1nc(NC(=O)CN(C)C)sc1S(=O)(=O)N1CCN(C[C@H](C)Nc2ncnc3c(-c4cn(C)nc4C(F)(F)F)cccc23)CC1 [Example 86, 2-(dimethylamino)-N-[4-methyl-5-({4-[(2S)-2-({8-[1-methyl-3-(trifluoromethyl)-1H-pyrazol-4-yl]quinazolin-4-yl}amino)propyl]piperazin-1-yl}sulfonyl)-1,3-thiazol-2-yl]acetamide]
2 | < 10 nM | – | COC(=O)Nc1nc(C)c(S(=O)(=O)N2CCN(C[C@H](C)Nc3ncnc4c(-c5cncc(C=O)c5)cccc34)CC2)s1 [Example 87, methyl N-[5-({4-[(2S)-2-{[8-(5-formylpyridin-3-yl)quinazolin-4-yl]amino}propyl]piperazin-1-yl}sulfonyl)-4-methyl-1,3-thiazol-2-yl]carbamate]
3 | < 10 nM | – | COC(=O)Nc1nc(C)c(S(=O)(=O)N2CCN(C[C@H](C)Nc3ncnc4c(-c5cccc(CN(C)C)c5C)cccc34)CC2)s1 [Example 89, methyl N-[5-({4-[(2S)-2-[(8-{3-[(dimethylamino)methyl]-2-methylphenyl}quinazolin-4-yl)amino]propyl]piperazin-1-yl}sulfonyl)-4-methyl-1,3-thiazol-2-yl]carbamate]
4 | < 10 nM | – | COC(=O)Nc1nc(C)c(S(=O)(=O)N2CCN(C[C@H](C)Nc3ncnc4c(-c5cccc(CN(C)C)c5F)cccc34)CC2)s1 [Example 90, methyl N-[5-({4-[(2S)-2-[(8-{3-[(dimethylamino)methyl]-2-fluorophenyl}quinazolin-4-yl)amino]propyl]piperazin-1-yl}sulfonyl)-4-methyl-1,3-thiazol-2-yl]carbamate]
5 | < 10 nM | – | COC(=O)Nc1nc(C)c(S(=O)(=O)N2CCN(C[C@H](C)Nc3ncnc4c(-c5ccc(C)c(CN(C)C)c5)cccc34)CC2)s1 [Example 91, methyl N-[5-({4-[(2S)-2-[(8-{3-[(dimethylamino)methyl]-4-methylphenyl}quinazolin-4-yl)amino]propyl]piperazin-1-yl}sulfonyl)-4-methyl-1,3-thiazol-2-yl]carbamate]
6 | < 10 nM | – | COC(=O)Nc1nc(C)c(S(=O)(=O)N2CCN(C[C@H](C)Nc3ncnc4c(-c5ccc(C)nc5C)cccc34)CC2)s1 [Example 92, methyl N-[5-({4-[(2S)-2-{[8-(2,6-dimethylpyridin-3-yl)quinazolin-4-yl]amino}propyl]piperazin-1-yl}sulfonyl)-4-methyl-1,3-thiazol-2-yl]carbamate]
7 | 10 to 100 nM | – | COC(=O)Nc1nc(C)c(S(=O)(=O)N2CCN(C[C@H](C)Nc3ncnc4c(-c5cc(C)ncn5)cccc34)CC2)s1 [Example 95, methyl N-[4-methyl-5-({4-[(2S)-2-{[8-(6-methylpyrimidin-4-yl)quinazolin-4-yl]amino}propyl]piperazin-1-yl}sulfonyl)-1,3-thiazol-2-yl]carbamate]
8 | < 10 nM | – | Cc1nc(C)c(-c2cccc3c(N[C@@H](C)CN4CCN(S(=O)(=O)c5ccc6[nH]c(=O)sc6c5)CC4)ncnc23)s1 [Example 98, 6-({4-[(2S)-2-{[8-(2,4-dimethyl-1,3-thiazol-5-yl)quinazolin-4-yl]amino}propyl]piperazin-1-yl}sulfonyl)-2,3-dihydro-1,3-benzothiazol-2-one]
9 | < 10 nM | – | COC(=O)Nc1nc(C)c(S(=O)(=O)N2CCN(C[C@H](C)Nc3ncnc4c(-c5c(C)nn(CCN(C)C)c5C)cccc34)CC2)s1 [Example 101, methyl N-[5-({4-[(2S)-2-[(8-{1-[2-(dimethylamino)ethyl]-3,5-dimethyl-1H-pyrazol-4-yl}quinazolin-4-yl)amino]propyl]piperazin-1-yl}sulfonyl)-4-methyl-1,3-thiazol-2-yl]carbamate]
10 | < 10 nM | – | COC(=O)Nc1nc(C)c(S(=O)(=O)N2CCN(C[C@H](C)Nc3ncnc4c(-c5cn(CCN(C)C)nc5C(F)(F)F)cccc34)CC2)s1 [Example 102, methyl N-[5-({4-[(2S)-2-[(8-{1-[2-(dimethylamino)ethyl]-3-(trifluoromethyl)-1H-pyrazol-4-yl}quinazolin-4-yl)amino]propyl]piperazin-1-yl}sulfonyl)-4-methyl-1,3-thiazol-2-yl]carbamate]
11 | – | > 3000 nM | COC(=O)Nc1nc(C)c(S(=O)(=O)N2CCN(C[C@H](C)Nc3ncnc4ncccc34)CC2)s1 [comparative Example A, Methyl (S)-(4-methyl-5-((4-(2-(pyrido[2,3-d]pyrimidin-4 ylamino)propyl)piperazin-1-yl)sulfonyl)thiazol-2-yl)carbamate, reference compound]

Further lines, the compound ahead of its results:

Row | Structure (SMILES) | IC50 [1] | IC50 (comparative compound, same in vitro assay, stated inactive on receptor LPA2, read-out: IC50 on LPA2 receptor)
12 | C[C@@H](CN1CCN(S(=O)(=O)c2ccccc2)CC1)Nc1ncnc2c(-c3cn(C)nc3C(F)(F)F)cccc12 [Example 88, N-[(2S)-1-[4-(benzenesulfonyl)piperazin-1-yl]propan-2-yl]-8-[1-methyl-3-(trifluoromethyl)-1H-pyrazol-4-yl]quinazolin-4-amine] | 10 to 100 nM | –
13 | Cc1cc(-c2cc(S(=O)(=O)N3CCN(C[C@H](C)Nc4ncnc5c(-c6cccc(CN(C)C)c6)cccc45)CC3)cs2)on1 [Example 93, 8-{3-[(dimethylamino)methyl]phenyl}-N-[(2S)-1-(4-{[5-(3-methyl-1,2-oxazol-5-yl)thiophen-3-yl]sulfonyl}piperazin-1-yl)propan-2-yl]quinazolin-4-amine] | < 10 nM | –
14 | C[C@@H](CN1CCN(S(=O)(=O)c2ccc3c(c2)sc(=O)n3C)CC1)Nc1ncnc2c(-c3cccnc3)cccc12 [Example 94, 3-methyl-6-({4-[(2S)-2-{[8-(pyridin-3-yl)quinazolin-4-yl]amino}propyl]piperazin-1-yl}sulfonyl)-2,3-dihydro-1,3-benzothiazol-2-one] | 10 to 100 nM | –
15 | C[C@@H](CN1CCN(S(=O)(=O)c2ccc3c(c2)sc(=O)n3C)CC1)Nc1ncnc2c(-c3ccc(F)c(CN(C)C)c3)cccc12 [Example 96, 6-({4-[(2S)-2-[(8-{3-[(dimethylamino)methyl]-4-fluorophenyl}quinazolin-4-yl)amino]propyl]piperazin-1-yl}sulfonyl)-3-methyl-2,3-dihydro-1,3-benzothiazol-2-one] | < 10 nM | –
16 | C[C@@H](CN1CCN(S(=O)(=O)c2ccc3[nH]c(=O)sc3c2)CC1)Nc1ncnc2c(-c3ccc(F)c(CN(C)C)c3)cccc12 [Example 97, 6-({4-[(2S)-2-[(8-{3-[(dimethylamino)methyl]-4-fluorophenyl}quinazolin-4-yl)amino]propyl]piperazin-1-yl}sulfonyl)-2,3-dihydro-1,3-benzothiazol-2-one] | < 10 nM | –
17 | Cc1ccc(-c2cccc3c(N[C@@H](C)CN4CCN(S(=O)(=O)c5ccc6nc(C)sc6c5)CC4)ncnc23)cn1 [Example 99, N-[(2S)-1-{4-[(2-methyl-1,3-benzothiazol-6-yl)sulfonyl]piperazin-1-yl}propan-2-yl]-8-(6-methylpyridin-3-yl)quinazolin-4-amine] | 10 to 100 nM | –
18 | Cc1ccc(-c2cccc3c(N[C@@H](C)CN4CCN(S(=O)(=O)c5ccc6c(c5)sc(=O)n6C)CC4)ncnc23)cn1 [Example 100, 3-methyl-6-({4-[(2S)-2-{[8-(6-methylpyridin-3-yl)quinazolin-4-yl]amino}propyl]piperazin-1-yl}sulfonyl)-2,3-dihydro-1,3-benzothiazol-2-one] | 10 to 100 nM | –
19 | C[C@@H](CN1CCN(S(=O)(=O)c2ccccn2)CC1)Nc1ncnc2c(-c3cn(C)nc3C(F)(F)F)cccc12 [Example 103, 8-[1-methyl-3-(trifluoromethyl)-1H-pyrazol-4-yl]-N-[(2S)-1-[4-(pyridine-2-sulfonyl)piperazin-1-yl]propan-2-yl]quinazolin-4-amine] | 10 to 100 nM | –
20 | C[C@@H](CN1CCN(S(=O)(=O)c2cccnc2)CC1)Nc1ncnc2c(-c3cn(C)nc3C(F)(F)F)cccc12 [Example 104, 8-[1-methyl-3-(trifluoromethyl)-1H-pyrazol-4-yl]-N-[(2S)-1-[4-(pyridine-3-sulfonyl)piperazin-1-yl]propan-2-yl]quinazolin-4-amine] | 10 to 100 nM | –
21 | Cc1nc2ccc(S(=O)(=O)N3CCN(C[C@H](C)Nc4ncnc5c(-c6ccc(F)c(CN(C)C)c6)cccc45)CC3)cc2s1 [Example 105, 8-{3-[(dimethylamino)methyl]-4-fluorophenyl}-N-[(2S)-1-{4-[(2-methyl-1,3-benzothiazol-6-yl)sulfonyl]piperazin-1-yl}propan-2-yl]quinazolin-4-amine] | < 10 nM | –
